What all share (assay): relative viability (nuclei count vs DMSO), 5 days (fraction); higher = more cells survive
Compound in the test “Apatinib + Dasatinib”: N#CC1(c2ccc(NC(=O)c3cccnc3NCc3ccncc3)cc2)CCCC1 [Apatinib] + Cc1nc(Nc2ncc(C(=O)Nc3c(C)cccc3Cl)s2)cc(N2CCN(CCO)CC2)n1 [Dasatinib] (partner 0.075 µM)
Put shortly: (§1)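 Each reported value is a median over duplicate plates. It expresses relative viability: treated-well nuclei count divided by vehicle-well nuclei count. Lung cancer cell lines in 1536-well plates were dosed by pin tool a day after seeding, alone with one drug or with a fixed anchor-drug dose plus five library-drug doses (not always all listed) in √10 steps, and nuclei were counted after 5 days.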

Compound in the test “Apatinib + Phenformin”: N#CC1(c2ccc(NC(=O)c3cccnc3NCc3ccncc3)cc2)CCCC1 [Apatinib] + N=C(N)NC(=N)NCCc1ccccc1 [Phenformin] (partner 250 µM)
In short, it runs like this: as §1

Compound in the test “Apatinib + Trametinib”: N#CC1(c2ccc(NC(=O)c3cccnc3NCc3ccncc3)cc2)CCCC1 [Apatinib] + CC(=O)Nc1cccc(-n2c(=O)n(C3CC3)c(=O)c3c(Nc4ccc(I)cc4F)n(C)c(=O)c(C)c32)c1 [Trametinib] (partner 0.02 µM)
Put shortly:
as §1

Compound in the test “Metformin + Trametinib”: CN(C)C(=N)NC(=N)N [Metformin] + CC(=O)Nc1cccc(-n2c(=O)n(C3CC3)c(=O)c3c(Nc4ccc(I)cc4F)n(C)c(=O)c(C)c32)c1 [Trametinib] (partner 0.02 µM)
In short, it runs like this:
as §1

These results are taken from the supplement of paper PMC10307832.

On to NCI-H460, for which the relative viability with Apatinib + Dasatinib (first compound 0.08 µM) came to 0.468; in the test with Apatinib + Dasatinib (first compound 0.253 µM) it was 0.477; with Apatinib + Dasatinib (first compound 0.8 µM), 0.426; with Apatinib + Dasatinib (first compound 2.53 µM) it was 0.487; with Apatinib + Dasatinib (first compound 8 µM), 0.413; with Apatinib + Phenformin (first compound 0.08 µM), 0.494. Besides, the relative viability with Apatinib + Phenformin (first compound 0.253 µM) amounted to 0.479; with Apatinib + Phenformin (first compound 0.8 µM), 0.489; with Apatinib + Phenformin (first compound 2.53 µM), 0.39; with Apatinib + Phenformin (first compound 8 µM) it was 0.385; with Apatinib + Trametinib (first compound 0.08 µM) it was 0.119; with Apatinib + Trametinib (first compound 0.253 µM), 0.172. The relative viability with Apatinib + Trametinib (first compound 0.8 µM) was determined as 0.223; with Apatinib + Trametinib (first compound 2.53 µM) it was 0.134; in the test with Apatinib + Trametinib (first compound 8 µM), 0.128; in the test with Metformin + Trametinib (first compound 31.62 µM), 0.122; with Metformin + Trametinib (first compound 100 µM), 0.136; with Metformin + Trametinib (first compound 316.23 µM), 0.133. Moreover, in the test with Metformin + Trametinib (first compound 1000 µM), the relative viability was 0.253.
